Laboratory results as given in patent US11707462B2, “Checkpoint kinase 1 (CHK1) inhibitors and uses thereof” (Boundless Bio, Inc., priority 2021, dated 2023).
pIC50: −log10 of the molar value.

molecular target: T1, Full-length human Chk1 protein (Homo sapiens, UniProt O14757); assay: Kinase HTRF biochemical assay (HTRF KinEASE), Chk1 enzyme activity; details: full-length human Chk1, ATP 1 mM, 60 minutes at room temperature
T1 construct: purchased Carna Biosciences, Inc. 02-117
T1 sequence (O14757 1-476): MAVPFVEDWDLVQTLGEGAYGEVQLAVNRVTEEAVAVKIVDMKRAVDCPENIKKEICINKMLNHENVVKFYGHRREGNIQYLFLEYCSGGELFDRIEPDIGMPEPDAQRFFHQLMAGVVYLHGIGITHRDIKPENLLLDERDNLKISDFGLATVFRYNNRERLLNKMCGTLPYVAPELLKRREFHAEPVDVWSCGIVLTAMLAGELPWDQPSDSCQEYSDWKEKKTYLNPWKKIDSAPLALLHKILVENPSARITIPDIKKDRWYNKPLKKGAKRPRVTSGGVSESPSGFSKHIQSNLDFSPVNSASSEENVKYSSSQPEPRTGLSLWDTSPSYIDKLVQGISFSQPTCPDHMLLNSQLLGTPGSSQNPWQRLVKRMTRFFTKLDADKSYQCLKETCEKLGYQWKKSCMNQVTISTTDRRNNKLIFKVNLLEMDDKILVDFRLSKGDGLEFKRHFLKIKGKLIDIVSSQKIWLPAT
Procedure: Example A: Kinase HTRF Biochemical Assay
Chk1 enzyme activity was measured using an HTRF KinEASE assay (Cisbio, catalog no. 62ST1PEC). Full-length human Chk1 protein (GenBank accession number NP_001265.1) was obtained from Carna Biosciences, Inc. (Kobe, Japan, catalog no. 02-117). The enzyme reaction was carried out in assay buffer containing (final concentrations): Chk1 enzyme (0.012 ng/μL), MgCl2 (5 mM) and DTT (1 mM). To determine compound dose response, DMSO stock solutions were serially diluted in a 10-point concentration series in duplicate. Compound solution (50 nL) was added to 384-well assay plates (Greiner, catalog no. 784075). To each well containing compound solution was added assay buffer solution (5 μL). Plates were centrifuged at 1000 rpm for 1 minute, then incubated at room temperature for 10 minutes. The reaction was started by addition of substrate buffer (5 μL/well) containing (final concentrations): STK substrate 1-biotin (120 nM) and ATP (1 mM). Assay plates were centrifuged at 1000 rpm for 1 minute, then incubated at room temperature for 60 minutes. The reaction was stopped by addition of detection buffer (Cisbio, 10 μL) containing (final concentrations): STK antibody-cryptate (0.25 nM) and streptavidin-XL665 (7.5 nM). Plates were centrifuged at 1000 rpm for 1 minute, then incubated at 25° C. for 2 hours. HTRF signal was read on an EnVision multimode plate reader […] in HTRF mode. Data were fit to dose-response curves using XLfit (IDBS, Surrey, UK) or Prism (GraphPad Software, La Jolla, Calif., US) to calculate IC50 values for each compound tested.

Structure (SMILES)	pIC50
COc1cccc(O[C@@H]2CCC[C@@H](N)C2)c1-c1cc(Nc2cnc(C#N)cn2)n[nH]1 [Example 1-64, 5-((5-(2-(((1R,3R)-3-aminocyclohexyl)oxy)-6-methoxyphenyl)-1H-pyrazol-3-yl)amino)pyrazine-2-carbonitrile]	< 6.00
COc1cccc(O[C@H]2CCC[C@H](N)C2)c1-c1cc(Nc2cnc(C#N)cn2)n[nH]1 [Example 1-65, 5-[[5-[2-[(1S,3S)-3-aminocyclohexoxy]-6-methoxy-phenyl]-1H-pyrazol-3-yl]amino]pyrazine-2-carbonitrile]	< 6.00
COc1cccc(O[C@H]2CC[C@H]2N)c1-c1cc(Nc2cnc(C#N)cn2)n[nH]1 [Example 3-3, 5-((5-(2-((1S,2R)-2-aminocyclobutoxy)-6-methoxyphenyl)-1H-pyrazol-3-yl)amino)pyrazine-2-carbonitrile]	6.30 to 7.00
COc1cccc(O[C@@H]2CC[C@@H]2N)c1-c1cc(Nc2cnc(C#N)cn2)n[nH]1 [Example 3-4, 5-((5-(2-((1R,2S)-2-aminocyclobutoxy)-6-methoxyphenyl)-1H-pyrazol-3-yl)amino)pyrazine-2-carbonitrile]	7.00 to 8.00
COc1cccc(O[C@@H]2CCCC[C@@H](N)C2)c1-c1cc(Nc2cnc(C#N)cn2)n[nH]1 [Example 3-6, 5-((5-(2-(((1R,3R)-3-aminocycloheptyl)oxy)-6-methoxyphenyl)-1H-pyrazol-3-yl)amino)pyrazine-2-carbonitrile]	6.30 to 7.00
CN[C@@H]1CC[C@@H](Oc2ccc(Cl)c(F)c2-c2cc(Nc3cnc(C(N)=O)cn3)n[nH]2)C1 [Example 3-23, 5-((5-(3-chloro-2-fluoro-6-(((1R,3R)-3-(methylamino)cyclopentyl)oxy)phenyl)-1H-pyrazol-3-yl)amino)pyrazine-2-carboxamide]	< 6.00
N#Cc1cnc(Nc2cc(-c3c(F)cccc3O[C@H]3CC[C@@H]3N)[nH]n2)cn1 [Example 3-31, 5-((5-(2-((1S,2S)-2-aminocyclobutoxy)-6-fluorophenyl)-1H-pyrazol-3-yl)amino)pyrazine-2-carbonitrile]	6.30 to 7.00
N#Cc1cnc(Nc2cc(-c3c(F)cccc3O[C@@H]3CC[C@@H]3N)[nH]n2)cn1 [Example 3-32, 5-((5-(2-((1R,2S)-2-aminocyclobutoxy)-6-fluorophenyl)-1H-pyrazol-3-yl)amino)pyrazine-2-carbonitrile]	7.00 to 8.00
N#Cc1cnc(Nc2cc(-c3c(F)cccc3O[C@H]3CC[C@H]3N)[nH]n2)cn1 [Example 3-34, 5-((5-(2-((1S,2R)-2-aminocyclobutoxy)-6-fluorophenyl)-1H-pyrazol-3-yl)amino)pyrazine-2-carbonitrile]	< 6.00
N#Cc1cnc(Nc2cc(-c3c(F)cccc3O[C@@H]3CCC[C@@H]3N)[nH]n2)cn1 [Example 3-39, 5-((5-(2-(((1R,2S)-2-aminocyclopentyl)oxy)-6-fluorophenyl)-1H-pyrazol-3-yl)amino)pyrazine-2-carbonitrile]	6.30 to 7.00
N#Cc1cnc(Nc2cc(-c3c(F)cccc3OC3CC4(CC(N)C4)C3)[nH]n2)cn1 (centres unmarked) [Example 3-41, 5-((5-(2-((6-aminospiro[3.3]heptan-2-yl)oxy)-6-fluorophenyl)-1H-pyrazol-3-yl)amino)pyrazine-2-carbonitrile]	6.30 to 7.00
Cc1ccc(O[C@H]2CC[C@@H](N)C2)c(-c2cc(Nc3cnc(C#N)cn3)n[nH]2)n1 [Example 3-43, 5-((5-(3-(((1S,3R)-3-aminocyclopentyl)oxy)-6-methylpyridin-2-yl)-1H-pyrazol-3-yl)amino)pyrazine-2-carbonitrile]	6.30 to 7.00
Cc1nc(-c2cc(Nc3cnc(C(N)=O)cn3)n[nH]2)c(O[C@@H]2CC[C@H](N)C2)cc1F [Example 3-51, 5-((5-(3-(((1R,3S)-3-aminocyclopentyl)oxy)-5-fluoro-6-methylpyridin-2-yl)-1H-pyrazol-3-yl)amino)pyrazine-2-carboxamide]	< 6.00
Cc1nc(-c2cc(Nc3cnc(C#N)cn3)n[nH]2)c(O[C@@H]2CC[C@H](N)C2)cc1Cl [Example 3-52, 5-((5-(3-(((1R,3S)-3-aminocyclopentyl)oxy)-5-chloro-6-methylpyridin-2-yl)-1H-pyrazol-3-yl)amino)pyrazine-2-carbonitrile]	6.30 to 7.00
Cc1cc(Cl)c(O[C@@H]2CC[C@H](N)C2)c(-c2cc(Nc3cnc(C#N)cn3)n[nH]2)n1 [Example 3-53, 5-((5-(3-(((1R,3S)-3-aminocyclopentyl)oxy)-4-chloro-6-methylpyridin-2-yl)-1H-pyrazol-3-yl)amino)pyrazine-2-carbonitrile]	< 6.00
COc1ccc(Cl)c(O[C@@H]2CC[C@H](N)C2)c1-c1cc(Nc2cnc(C#N)cn2)n[nH]1 [Example 4-4, 5-((5-(2-(((1R,3S)-3-aminocyclopentyl)oxy)-3-chloro-6-methoxyphenyl)-1H-pyrazol-3-yl)amino)pyrazine-2-carbonitrile]	6.30 to 7.00

Other lines, results leading:

pIC50	Structure (SMILES)
7.00 to 8.00	N#Cc1cnc(Nc2cc(-c3ccccc3OC3CC4(CC(N)C4)C3)[nH]n2)cn1 (centres unmarked) [Example 1-54, 5-((5-(2-((6-aminospiro[3.3]heptan-2-yl)oxy)phenyl)-1H-pyrazol-3-yl)amino)pyrazine-2-carbonitrile]
7.00 to 8.00	COc1cccc(O[C@H]2CCCC[C@@H](N)C2)c1-c1cc(Nc2cnc(C#N)cn2)n[nH]1 [Example 3-9, 5-((5-(2-(((1S,3R)-3-aminocycloheptyl)oxy)-6-methoxyphenyl)-1H-pyrazol-3-yl)amino)pyrazine-2-carbonitrile]
7.00 to 8.00	Cc1cc(-c2cc(Nc3cnc(C#N)cn3)n[nH]2)c(O[C@@H]2CC[C@H](N)C2)cc1F [Example 3-17, 5-((5-(2-(((1R,3S)-3-aminocyclopentyl)oxy)-4-fluoro-5-methylphenyl)-1H-pyrazol-3-yl)amino)pyrazine-2-carbonitrile]
≥ 8.00	N#Cc1cnc(Nc2cc(-c3c(F)cccc3O[C@H]3CCCC[C@@H](N)C3)[nH]n2)cn1 [Example 3-36, 5-((5-(2-(((1S,3R)-3-aminocycloheptyl)oxy)-6-fluorophenyl)-1H-pyrazol-3-yl)amino)pyrazine-2-carbonitrile]
7.00 to 8.00	N#Cc1cnc(Nc2cc(-c3c(F)cccc3O[C@@H]3CCCC[C@@H](N)C3)[nH]n2)cn1 [Example 3-37, 5-((5-(2-(((1R,3R)-3-aminocycloheptyl)oxy)-6-fluorophenyl)-1H-pyrazol-3-yl)amino)pyrazine-2-carbonitrile]
≥ 8.00	N#Cc1cnc(Nc2cc(-c3nc(C(F)F)ccc3O[C@@H]3CC[C@H](N)C3)[nH]n2)cn1 [Example 3-54, 5-((5-(3-(((1R,3S)-3-aminocyclopentyl)oxy)-6-(difluoromethyl)pyridin-2-yl)-1H-pyrazol-3-yl)amino)pyrazine-2-carbonitrile]
≥ 8.00	COc1cccc(OCC2CC2N)c1-c1cc(Nc2cnc(C#N)cn2)n[nH]1 (centres unmarked) [Example 3-55, 5-((5-(2-((2-aminocyclopropyl)methoxy)-6-methoxyphenyl)-1H-pyrazol-3-yl)amino)pyrazine-2-carbonitrile]
